Measured values as given in PubChem BioAssay (NCI).
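Briefly, cells in 96-well plates were exposed to five compound concentrations for 48 h, and endpoints were estimated by linear interpolation. GI50 = concentration required for 50% inhibition of growth. TGI is the concentration that stops growth completely.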

How the values were obtained:
Experiment in all cases: DTP human tumour cell line panel, 48 h
[1] = system: SNB-19 CNS
[2] = system: LOX IMVI melanoma
[3] = system: SF-539 CNS
[4] = system: HCC-2998 colon
[5] = system: PC-3 prostate
[6] = system: SF-295 CNS
[7] = system: HT29 colon
[8] = system: UACC-257 melanoma
[9] = system: SK-OV-3 ovarian
[10] = system: NCI/ADR-RES ovarian

Row | Structure (SMILES) | GI50 [1] [µM] | TGI [1] [µM] | GI50 [2] [µM] | TGI [2] [µM] | GI50 [3] [µM] | TGI [3] [µM] | TGI [4] [µM] | GI50 [5] [µM] | TGI [5] [µM] | GI50 [6] [µM] | TGI [6] [µM] | GI50 [7] [µM] | TGI [7] [µM] | GI50 [8] [µM] | TGI [8] [µM] | GI50 [9] [µM] | TGI [9] [µM] | GI50 [10] [µM] | TGI [10] [µM] | GI50 [4] [µM]
1 | COc1ccc(Cl)cc1Nc1nc(C(F)(F)F)ccc1C(=O)NN | 8.93 | > 100 | 2.57 | > 65.4 | 6.52 | > 30.7 | 9.82 | 2.84 | > 100 | 1.97 | 11.7 | 26.3 | > 100 | 3.87 | > 30.2 | 3.88 | > 68.1 | 2.3 | > 22.5 | –
2 | Cc1cc(N(CCNc2ccnc3cc(Cl)ccc23)Cc2ccc3c(c2)OCO3)nc(N2CCN(C)CC2)n1 | 3.78 | 13 | 1.79 | 3.66 | 1.78 | 3.33 | 4.88 | 4.59 | 17.7 | 1.72 | 3.42 | 1.84 | 5.96 | 2.01 | 3.79 | 9.55 | 21.6 | 3.26 | 14.7 | 2.12
3 | C[C@]12CC[C@@H]3c4ccc(O)c([N+](=O)[O-])c4CC[C@H]3[C@@H]1CC[C@@H]2NS(=O)(=O)c1ccc(C(F)(F)F)cc1 | 2.79 | 11.2 | 1.67 | 3.07 | 1.77 | 3.39 | 4.02 | 1.65 | 4 | 2.96 | 10.6 | 2.03 | 3.71 | 1.87 | 4.74 | 2.65 | 7.36 | 1.95 | 4.7 | 2.05
4 | CCOC(=O)c1c(NC(=O)c2ccc(C(C)C)cc2)sc2c(CN(C)C)c(O)ccc12 | 2.36 | 5.3 | 1.76 | 3.23 | 1.74 | 3.23 | 3.51 | 2.18 | 5.71 | 1.86 | 3.45 | 3.26 | 14.1 | 2.12 | 4.61 | 3 | 9.22 | 1.89 | 4.52 | 1.88
5 | CC[C@H](C)[C@H](NC(=O)c1cnccn1)C(=O)N(C)[C@H](C[C@@H](OC(C)=O)c1nc(C(=O)N[C@@H](Cc2ccccc2)C[C@H](C)C(=O)OC)cs1)C(C)C | 1.42 | > 33.3 | 1.63 | > 33.3 | 0.779 | 2.09 | > 33.3 | 1.36 | > 33.3 | 1.03 | > 33.3 | 1.06 | 6.75 | 5.21 | 22.1 | 1.95 | > 33.3 | 2.81 | > 33.3 | 1.35
6 | Fc1cccc(COc2ccc(Nc3ncnc4sc(-c5ccco5)cc34)cc2Cl)c1 | > 25 | > 25 | > 25 | > 25 | > 25 | > 25 | > 25 | > 25 | > 25 | > 25 | > 25 | > 25 | > 25 | > 25 | > 25 | > 25 | > 25 | > 25 | > 25 | > 25
7 | Nc1cc2c3c(cccc3c1)NC2=O | – | > 100 | – | > 100 | – | > 100 | > 100 | – | > 100 | – | > 100 | – | > 100 | – | > 100 | – | > 100 | – | > 100 | –
8 | O=C(Nc1ccc(OC(F)(F)F)cc1)c1sccc1NCc1ccnc2ccccc12 | 13 | > 100 | 2.85 | 13.5 | 4.3 | > 100 | > 100 | 3.74 | > 83.3 | 2.63 | > 45.7 | 3.36 | > 100 | 3.62 | 52.5 | 2.42 | > 100 | 2.81 | > 100 | 4.82
9 | COC1/C=C/OC2(C)Oc3c(C)c(O)c4c(c3C2=O)C(=O)C=C(NC(=O)/C(C)=C\C=C\C(C)C(OC=O)C(C)C(O)C(C)C(OC(C)=O)C1C)C4=O (stereo unspecified) | – | 27.4 | – | 14.1 | – | 32.9 | 35.4 | – | 25.1 | – | 51 | – | 23.4 | – | 26.5 | – | 56.7 | – | 49.2 | –
10 | Cc1cc2c(C(C)C)c(O)c(O)c(C=Nc3cc(C(F)(F)F)ccc3Cl)c2c(O)c1-c1c(C)cc2c(C(C)C)c(O)c(O)c(C=Nc3cc(C(F)(F)F)ccc3Cl)c2c1O | – | > 100 | – | 47.3 | – | > 100 | > 100 | – | > 100 | – | – | – | 79.3 | – | > 100 | – | 54 | – | > 100 | –
11 | CC1(C)O[C@H]2OC3CCC(=O)CC3(O)[C@H]2O1 (stereo partly specified) | – | > 100 | – | > 100 | – | > 100 | > 100 | – | > 100 | – | > 100 | – | > 100 | – | > 100 | – | > 100 | – | > 100 | –
12 | CSc1ccc(C2=Nn3c(nnc3-c3ccc(F)c(Cl)c3)SC2)cc1 | 10.7 | 32.7 | 10.8 | 43.1 | 10.1 | 26.7 | > 100 | 4.67 | > 100 | 3.57 | 17.5 | 5.73 | 29.7 | 67.6 | > 100 | 13.5 | 41.9 | 5.17 | 22.6 | 24
13 | CNC(=O)Nc1ccc(-c2nc(N3CCOCC3)nc3c2cnn3C2CCOCC2)cc1 | 0.396 | > 100 | 0.161 | > 100 | 0.205 | 1.36 | > 100 | 0.0809 | 7.49 | 0.0716 | 0.585 | 0.295 | > 100 | 0.184 | 1.4 | 0.12 | 0.685 | 0.511 | > 22.5 | 0.307
14 | CC(=O)c1cccc(N(/C=C/C(=O)C(F)(F)F)CC(=O)c2ccc(Cl)cc2)c1 | – | – | > 100 | > 100 | > 100 | > 100 | > 100 | > 100 | > 100 | > 100 | > 100 | > 100 | > 100 | > 100 | > 100 | > 100 | > 100 | > 100 | > 100 | > 100
